From PubChem BioAssay (NCI) come the findings set out here.

Among the test systems are PC-3 prostate; A498 renal; MOLT-4 leukemia; OVCAR-5 ovarian; OVCAR-3 ovarian; SK-MEL-28 melanoma; UO-31 renal; HS 578T breast; SNB-19 CNS; HOP-92 NSCLC; SF-295 CNS.
Holding throughout (experiment): inhibition of tumour cell growth, NCI panel, 48 h

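Each compound was tested at five concentrations against cells in 96-well plates for 48 hours. GI50: concentration for 50% inhibition of growth. TGI: total growth inhibition.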

For the compound `CCOC(=O)Nc1n[nH]nc1Cl`, the TGI with PC-3 prostate, in the test with A498 renal, with MOLT-4 leukemia, with OVCAR-5 ovarian, with OVCAR-3 ovarian and with SK-MEL-28 melanoma was > 100 µM throughout. In addition, the TGI in the test on UO-31 renal and with HS 578T breast was > 100 µM in each case.
Take `O=C1Nc2ccccc2/C1=C\c1c(-c2ccccc2)nc2n1CCS2`: the TGI is 91 µM in the test with SNB-19 CNS; > 100 µM in the test with HOP-92 NSCLC; 48.3 µM with PC-3 prostate; 68.8 µM in the test with A498 renal; 81 µM with MOLT-4 leukemia; 58.5 µM in the test with OVCAR-5 ovarian. In addition, the TGI is 48.6 µM with SF-295 CNS; 41.8 µM in the test on OVCAR-3 ovarian; > 100 µM in the test with SK-MEL-28 melanoma; 80.6 µM with UO-31 renal; 75.2 µM in the test on HS 578T breast.
With `NC(Cc1ccccc1)c1nn[nH]n1` (centres undefined), the TGI in the test with SNB-19 CNS, in the test with HOP-92 NSCLC, in the test on PC-3 prostate, in the test with A498 renal, with OVCAR-5 ovarian and in the test with SF-295 CNS was > 100 µM in each case. Further, the TGI in the test on OVCAR-3 ovarian, in the test on SK-MEL-28 melanoma, in the test with UO-31 renal and in the test on HS 578T breast was > 100 µM in each case.
Consider `CCCCCCCCCCCCCCCC(=O)Nc1ccn(C2CCC(COP(=O)(O)OCC3OC(n4cc(F)c(=O)[nH]c4=O)CC3OC(C)=O)O2)c(=O)n1` (centres undefined), for which the TGI with SNB-19 CNS was 35.2 µM; in the test on HOP-92 NSCLC, 66.3 µM; in the test on PC-3 prostate, 56.8 µM; in the test on A498 renal it was > 100 µM; with MOLT-4 leukemia it was 30.4 µM; with OVCAR-5 ovarian it was > 74.5 µM. Further, the TGI with SF-295 CNS is 29.6 µM; in the test with OVCAR-3 ovarian, 59 µM; in the test with SK-MEL-28 melanoma, 43.8 µM; in the test on UO-31 renal, 28.9 µM; in the test with HS 578T breast, > 100 µM.
For `CCCCCCCC(CC(=O)NC(CO)C(=O)NC(CO)CC(C)C)OC(=O)CC(CCCCCCC)OC(=O)CC(CCCCCCC)OC1OC(C)C(O)C(OC2OC(C)C(O)C(O)C2O)C1O` (centres undefined), the TGI was 26.1 µM in the test on SNB-19 CNS; 24.8 µM in the test on HOP-92 NSCLC; 25.3 µM with PC-3 prostate; 35 µM in the test on A498 renal; 28.2 µM in the test with MOLT-4 leukemia; 26 µM with OVCAR-5 ovarian. For the same compound, the TGI amounted to 27.1 µM with SF-295 CNS; 26.9 µM with OVCAR-3 ovarian; 21.2 µM with SK-MEL-28 melanoma; 30.5 µM in the test with UO-31 renal; 22.7 µM in the test on HS 578T breast.
With `CCOC(=O)C1=CNC(C(=O)OCC)C1c1cccn1-c1ccccc1` (centres undefined), the TGI in the test with HOP-92 NSCLC is 56.8 µM; in the test on PC-3 prostate it was 71.3 µM; in the test on A498 renal it was > 100 µM; in the test with MOLT-4 leukemia, 47.3 µM; in the test on OVCAR-5 ovarian, > 100 µM; with SF-295 CNS, 74.5 µM. Also, the TGI with OVCAR-3 ovarian was > 100 µM; with SK-MEL-28 melanoma, 76.3 µM; in the test on UO-31 renal, > 100 µM; with HS 578T breast, > 100 µM.
For `C(=N\NC1=NCCN1)/c1cccc2cc3ccncc3nc12`, the TGI with SNB-19 CNS was 21.4 µM; in the test on HOP-92 NSCLC, 6.4 µM; in the test with PC-3 prostate, 13.7 µM; in the test on A498 renal, 23.9 µM; with MOLT-4 leukemia it was 10.8 µM; with SF-295 CNS, 14.5 µM. Moreover, the TGI was determined as 17.1 µM in the test with OVCAR-3 ovarian, 22.8 µM in the test with SK-MEL-28 melanoma, 14.2 µM with UO-31 renal and 61.3 µM in the test on HS 578T breast.
In the case of `COc1cc(/C=C/C(=O)c2ccc(F)cc2)ccc1OCCCCCOc1cc2c(cc1OC)C(=O)N1CCCC1C=N2` (centres undefined), the GI50 in the test with SNB-19 CNS was < 0.0223 µM; in the test on HOP-92 NSCLC, 0.158 µM; in the test with PC-3 prostate, 0.0208 µM; with A498 renal, 0.138 µM; in the test on MOLT-4 leukemia, < 0.01 µM; with SF-295 CNS it was < 0.01 µM. Besides, the GI50 with SK-MEL-28 melanoma is 0.194 µM; in the test on UO-31 renal, 0.0473 µM; in the test on HS 578T breast it was 0.0298 µM. Moreover, the TGI in the test with SNB-19 CNS was 3.35 µM; with HOP-92 NSCLC, 0.575 µM; with PC-3 prostate, 0.215 µM; in the test on A498 renal, 0.331 µM; in the test on MOLT-4 leukemia it was 0.0418 µM; in the test with SF-295 CNS, < 0.0108 µM. For the same compound, the figures for the TGI with SK-MEL-28 melanoma, in the test on UO-31 renal and with HS 578T breast were 0.473 µM, 3.64 µM and 0.223 µM, respectively.
`O=C1CCSc2nc(-c3ccc4c(c3)OCO4)nn21`: the TGI in the test on SNB-19 CNS, in the test with HOP-92 NSCLC, in the test with PC-3 prostate, in the test on A498 renal, in the test with MOLT-4 leukemia and in the test on OVCAR-5 ovarian was > 10 µM each time. Moreover, the TGI in the test with SF-295 CNS, with OVCAR-3 ovarian, with SK-MEL-28 melanoma and in the test on HS 578T breast was > 10 µM each time.
Turning to `C#C[C@]1(O)[C@@H](CO)O[C@@H](n2ccc(N)nc2=O)[C@@H]1O`, the TGI with SNB-19 CNS was > 24 µM; in the test on HOP-92 NSCLC, 12.7 µM; in the test with PC-3 prostate, 0.762 µM; in the test with A498 renal, 0.54 µM; in the test on MOLT-4 leukemia, > 32 µM; in the test with SF-295 CNS, 3.07 µM. The TGI in the test on OVCAR-3 ovarian is > 20.8 µM; in the test on SK-MEL-28 melanoma, 4.27 µM; in the test with UO-31 renal, 0.395 µM; with HS 578T breast, > 40 µM.
Turning to `Cc1c(-c2nc(N)c(C#N)c(N)c2C#N)c(=O)oc2ccccc12`, the TGI in the test with SNB-19 CNS, with HOP-92 NSCLC, in the test with PC-3 prostate, with A498 renal, in the test on OVCAR-5 ovarian and in the test on SF-295 CNS was > 100 µM throughout. For the same compound, the TGI with OVCAR-3 ovarian, with SK-MEL-28 melanoma, in the test with UO-31 renal and with HS 578T breast was > 100 µM in each case.
`O=C(Oc1c(Br)cc(Br)cc1C(=O)Oc1ccccc1)C(=O)Oc1c(Br)cc(Br)cc1C(=O)Oc1ccccc1`: the TGI is 64.8 µM in the test with SNB-19 CNS; 38.4 µM with HOP-92 NSCLC; 69.6 µM in the test on PC-3 prostate; 55.1 µM with MOLT-4 leukemia; 89.9 µM in the test with OVCAR-5 ovarian; > 100 µM with SF-295 CNS. Besides, the TGI is 66.2 µM with OVCAR-3 ovarian, > 100 µM with SK-MEL-28 melanoma, 49.7 µM in the test on UO-31 renal and > 100 µM in the test on HS 578T breast.
